Row | melting point [°C] | Structure (SMILES)
1 | > 280 | COc1cc(Nc2nc3cccc(-c4ccc(C(N)=O)cc4)c3o2)cc(OC)c1OC
2 | 206 to 207 | CC(=O)N1CCCC1c1ccnc(-c2nc(=O)c3ccccc3s2)c1 (stereo not given)
3 | 77 to 78 | CC(=O)OCCCn1cc(C2=C(c3ccccc3[N+](=O)[O-])C(=O)NC2=O)c2ccccc21
4 | 73.4 to 73.5 | O=C(O)c1cc(=O)c2cccc(/C=C/c3ccc(OCCCCc4ccccc4)cc3F)c2o1
5 | 245 to 246 | O=C(O)COc1ccc(-c2c3ccc(OCC(=O)O)cc3cc3sc4ccccc4c23)cc1
6 | 140 | Fc1cccc(C(c2ccnc3ccccc23)n2ccnc2)c1 (stereo not given)
7 | 64 to 71 | CCOC(=O)C1=NOC2(CCC(C3CCCCC3)CC2)C1 (stereo not given)
8 | 159 | Cc1cccc(N2CCN(c3ccc(OCc4ccccc4)nn3)CC2)c1
9 | 192 to 194 | O=C1Cc2cc(C(O)CN3CCC(O)(c4ccccc4)CC3)ccc2N1 (stereo not given)
10 | 160 to 162 | Cc1cccc(Cl)c1NC(=O)Nc1ccc(CC(=O)NC(CC(C)C)c2ncc(CCC(=O)O)s2)cc1 (stereo not given)
11 | 153 to 154 | CC(=O)N(O)C(C)c1cc(C(C)(C)C)c(O)c(C(C)(C)C)c1 (stereo not given)
12 | 124 to 126 | CCCCc1nc2c(N)nc3ccccc3c2n1CCN1C(=O)NC2CSC(CCCCC(N)=O)C21 (stereo not given)
13 | 156 | Cc1nn(-c2c(Cl)cc(C(F)(F)F)cc2Cl)c(N)c1SC(Cl)(Cl)Cl
14 | 245 to 247 | C/C(=C\c1ccc(C(=O)O)cc1)c1ccc2c(c1)C(C)(C)CCS2(=O)=O
15 | 205 to 206 | CCNc1cc(Oc2ccc(NC(=O)NC3CC3c3ccccc3)cc2)ncn1 (stereo not given)
16 | 298 | O=C1Nc2ccc(I)cc2C1=NNC(=O)c1ccc(OCc2ccccc2)cc1
17 | 104 to 105 | C[C@@H](O)CNC(=O)N1CC(Oc2ccc(C(C)(C)C)cc2)C1
18 | 202 to 204 | COc1cccc(CNC(=O)c2nc3ccc(-c4ccccc4)cc3c(=O)[nH]2)c1
19 | 117 to 119 | COC(=O)c1cc(S)cc(C(=O)OC)c1[N+](=O)[O-]
20 | 179 to 181 | O=C(O)C(CCCN1C(=O)c2ccccc2C1=O)NS(=O)(=O)c1ccc(-c2ccc(Cl)cc2)cc1 (stereo not given)
21 | 186 to 188 | C=C1N(c2ccc(Cl)cc2)C(=O)OC12CCN(CCC=C(c1ccc(F)cc1)c1ccc(F)cc1)CC2
22 | 132 to 134 | CC(=O)c1cc(N(C)C)ccc1NC(=O)c1ccccc1OCc1ccccc1
23 | 154 to 156 | CCc1cc(-c2ccccc2OC)n2nc(Nc3ccc(N4CCN(C)CC4)cc3)ncc12

Row | melting point [°C] | Structure (SMILES)
24 | 234 | CCCOc1ccccc1-c1nc(O)cc(C(N)=O)n1
25 | 132 to 134 | OCc1cc(NCCCCCCBr)ccc1O
26 | 227 to 228 | Cc1csc(C(=O)C2C(=O)N(C(N)=O)c3ccc(Cl)nc32)c1 (stereo not given)
27 | 135 to 140 | CN(CCCCCCCCNC(=O)NCCSCc1csc(NC(=N)N)n1)CCC(c1ccc(Cl)cc1)c1ccccn1 (stereo not given)
28 | 123 to 124 | CCN1CN(c2cccc(F)c2)c2ncccc2C1=O
29 | 123 to 124 | N#CCOc1nsc2ccc([N+](=O)[O-])cc12
30 | 189 to 191 | COc1cc2cc(C(=O)N3CC(CCl)c4c3cc(N3C(=O)c5ccccc5C3=O)c3ncccc43)[nH]c2c(OC)c1OC (stereo not given)
31 | 95 to 98 | Cc1ncnn1C[Si](C)(C)c1ccc(-c2ccccc2)cc1
32 | 164 to 166 | CC(Oc1ccc(C(=O)NCCN(O)C(N)=O)cc1)c1ccccc1 (stereo not given)
33 | 172 to 175 | N=C(N)Nc1nc(CSCCNc2c(NCc3ccncc3)c(=O)c2=O)cs1
34 | 98 | CCC(C)N(C)C(=O)c1cc(-c2ccccc2Cl)c2sccc2c1 (stereo not given)
35 | 63 to 64 | O=NN(CCCl)C(=O)NCCOC(=O)c1cccnc1
36 | 101 to 103 | O=[N+]([O-])c1cc2c(cc1[N+](=O)[O-])OC(CC(F)(F)F)(C(F)(F)F)O2
37 | 90 to 105 | Cc1cc(C2=CO[C@@](c3cc(Cl)cc(Cl)c3)(C(F)(F)F)C2)ccc1C(=O)NC1CS(=O)(=O)C1
38 | 148 to 149 | C=CCOc1ccc(OCC)c2c1S(=O)(=O)N(Cc1ccccc1)C2=O
39 | 57.5 to 59.1 | CCCCCCc1csc2c(CCCCCC)csc12
40 | 126 to 127 | ClCc1cc(OCc2ccc3ccccc3n2)no1
41 | 168 to 175 | Cc1cc(C(=O)CCc2cc(-c3ccc(C(F)(F)F)cc3)nn2CC2CC2)ccc1OCC(=O)O
42 | 165 | CCCN(CCC)CC1CCCCN1CCNC(=O)N1c2ccccc2C(=O)Nc2cccnc21 (stereo not given)
43 | 133 | CO[C@@H]1C[C@H](C(=O)Nc2ccc(N3CCOCC3=O)cc2)N(C(=O)Nc2ccc(Cl)cc2)C1
44 | 63 to 65 | O=C(Br)Cc1ccc(-c2cccc(Cl)c2)cc1
45 | 215 | CC(n1ncn(-c2ccc(N3CCN(c4ccc(O)cc4)CC3)cc2)c1=O)C(F)(F)F (stereo not given)
46 | 184 to 185 | COc1ccc(-c2nc3ccc(OC)cc3c(Br)c2Cl)cc1

Row | melting point [°C] | Structure (SMILES)
47 | 144 to 145 | O=C(O)C(=O)c1ccc(OCCOc2ccc3c(c2)CCCC3)cc1
48 | 146 to 151 | O=C(Cc1ccccc1)N[C@@H](Cc1ccc(OCCc2coc(-c3ccccc3)n2)cc1)C(=O)O
49 | 134 to 135 | CCOCN1C(C)=C(C(=O)O)C(c2cccc([N+](=O)[O-])c2)C(C(=O)OC)=C1C (single isomer, unassigned; (-))
50 | 120 to 121 | Cc1ncoc1-c1ccc(C#N)cc1
51 | 84 to 86 | CC(C)(C)OC(=O)CCC(N)(CCC(=O)OC(C)(C)C)CCC(=O)OC(C)(C)C
52 | 308 to 311 | Clc1ccc(-c2ccnc(Nc3nc4ccccc4[nH]3)n2)cn1
53 | 139 to 142 | COCCc1ccc(OCC(O)CNC(C)COc2ccc(O)c(C(N)=O)c2)cc1 (stereo not given)
54 | 178 to 179 | COc1cc(-n2cnc3cc(-c4ccc(Cl)cc4)sc3c2=O)ccc1OC[C@H](O)C1CC1
55 | 91 to 92 | COC(=O)c1c(OCc2ccccc2)ccc2c1CC[C@H](NC(C)C)[C@@H]2O (relative stereo)
56 | 36 | CCCCc1ccc(-c2ccc(CCC3OCC(CCC)CO3)cc2)c(F)c1 (stereo not given)
57 | 62 to 66 | O=C(C(=O)c1ccc(F)cc1Br)c1ccccc1
58 | 130 | CC(=O)c1ccc(C2=NC[C@@H](O)[C@H](c3ccccc3)O2)cc1 (racemic)
59 | 94 to 100 | COc1cccc2c(CCC3CC(=O)CCC3=O)cccc12 (stereo not given)
60 | 111 to 112 | COc1ccc(N2CCN(C(=O)CC3CCc4ccccc43)CC2)cc1 (stereo not given)
61 | 206 to 207 | O=C(Nc1ccc(Cl)cn1)c1ccccc1O
62 | 191 to 196 | CCC(CC)(CC(=O)Nc1ccc2ccc(OCc3ccc4cc(F)ccc4n3)cc2c1)C(=O)O
63 | 184 | CC(C)(N)c1ccc(-c2nc(Nc3ccc(CCn4ccnc4)cc3)ncc2C#N)cc1
64 | 248 | CC(C(=O)O)c1ccc(-c2cn3cccnc3n2)cc1 (stereo not given)
65 | 213 to 216 | OC(c1ccccc1)c1ccc(Nc2nccc(-c3cnc4ccccn34)n2)cc1 (stereo not given)
66 | 158 to 160 | O=C(O)C1=CCCN1C(=O)CCSSCCC(=O)N1CCC=C1C(=O)O
67 | 154 to 155 | CSc1ccc(-c2nn(Cc3ccc(Cl)cc3Cl)c(=O)cc2-c2ccc(Cl)cc2)cc1
68 | 136 | CC(C)Oc1c(C(=O)O)n(C)c2ccc(OCc3ccccc3)cc12
69 | 144 | COC(=Cc1ccc(-c2cccc(N(C)C(=O)NCCc3ccccc3)c2)cc1)C(=O)O

Row | melting point [°C] | Structure (SMILES)
70 | 123 to 125 | COc1cc(Br)c(N)c(C(=O)/C=C/c2ccc(OC)c(F)c2)c1
71 | 209 to 211 | Cc1cc(-n2cncn2)cc(C=O)c1N
72 | 153 to 157 | CC(C)Oc1cccc(-c2nn(C(C)c3oc4ccccc4c(=O)c3-c3cccc(F)c3)c3ncnc(N)c23)c1 (stereo not given)
73 | 239 to 241 | Nc1ccc(Oc2ccc3cc(Oc4ccc(N)c(O)c4)ccc3c2)cc1O
74 | > 400 | O=c1[nH]c2ncc(-c3ccc(O)nc3)nc2n1CC1CCCCC1
75 | 160 to 162 | COC(=O)c1nn(-c2ccc(I)cc2F)cc(OC)c1=O
76 | 133 to 136 | O=C(O)c1ccc(OCC2CCN(CCOc3ccc4c(c3)OCO4)CC2)cc1
77 | 145 to 147 | CC(C)(C)OC(=O)NCCNC(=O)c1ncccc1OCc1ccccc1
78 | 241 to 243 | COc1cc2ncc(C#N)c(Nc3ccc4ncccc4c3)c2cc1OC
79 | 123 | COc1ccc(S(=O)(=O)Nc2c(C(=O)O)cc(C#N)c(Cc3ccccc3)c2C)cc1
80 | 206 to 209 | Cc1oc2ccc(S(=O)(=O)C[N+](=O)[O-])cc2c(=O)c1C
81 | 82 to 83 | COc1ccc2c(n1)CC(=O)N2CCCBr
82 | 178 | N#Cc1cn(COCCO)c2ncnc(N)c12
83 | 48 to 49 | N#CCc1ccccc1Sc1ccc(Cl)c(Cl)c1
84 | 75 to 78 | CC(CC(=O)O)C(=O)c1ccc(F)cc1 (stereo not given)
85 | 212 | CC(C)n1cc(-c2ccc(F)cc2)c(-c2ccc(F)cc2)c1C(=O)O
86 | 179 to 180 | CS(=O)(=O)Nc1ccc(C=C2CCOC2=O)cc1Oc1ccc(F)cc1F
87 | 203 to 205 | Clc1ccc(-c2ncc3nc(Cl)cc(Cl)n23)cc1
88 | 178 to 180 | O=C(Nc1cccnc1)N1CCc2ccc(Cl)c(Cl)c21
89 | 244 to 246 | O=S1(=O)NC(C2CCCCC2)Nc2ccc(S(=O)(=O)N3CCCC3)cc21 (stereo not given)
90 | 99 to 100 | CS(=O)(=O)OCCc1cc(Nc2ncc3c(n2)-c2ccccc2[C@H](c2ccccc2F)C3)ccc1F

Row | Structure (SMILES) | melting point [°C]
91 | CCCn1nc(C(=O)c2cccc(O)c2)c2cccc(C(F)(F)F)c21 | 118
92 | Cc1sc2c(c1C)C(c1ccc(Cl)cc1)=NC(CC(=O)N1CCCCC1)c1nnc(C)n1-2 (stereo not given) | 260 to 262
93 | O=C(O)C(=O)c1cn(Cc2ccc(F)cc2)c2ccc(-c3ccc(OC(F)(F)F)cc3)cc12 | 158 to 159
94 | O=C(Nc1cccc(Cl)c1)ONC1=Nc2ccc([N+](=O)[O-])cc2C(c2ccccc2)=NC1 | 123 to 125
95 | CC(=O)OCCC(=O)C1CCC2C3CCC4CC(O)CCC4(C)C3C(=O)CC12C (stereo not given) | 113 to 115
